Assay results: patent US7598244B2, “[1,2,4]triazolo[1,5,a]pyrimidin-2-ylurea derivative and use thereof” (Nippon Kayaku Kabushiki Kaisha, priority 2003, dated 2009)

Test system: MHC class I molecules of T1 cells (human lymphoma cell line 174×CEM.)
Experiment: Effect on expression of MHC class I from T1 cells (flow cytometry, MFI)
Format: cell-based
Conditions: 3 days culture
Experimental: Effect on Expression of MHC Class I from T1 Cells (Human Lymphoma Cell Line 174×CEM.)
Using a 96-well flat bottom microplate, T1 cells (5.7×10^3 cells/200 μl/well) were cultured in an RPMI 1640 medium (Iwaki Glass) containing 10% fetal bovine serum (hereinafter abbreviated as FBS; Iruvine Scientific) in an incubator containing 5% carbon dioxide at 37° C. for 3 days, in the presence of a test compound having each concentration obtained by dilution at a common ratio route of 10 from 400 μM. After completion of the culture, the cells were stained with fluoroisothiocyanate-labeled mouse anti-human MHC class I monoclonal antibody (an antibody produced from the cell line W6/32 (ATCC No. CRL 1991)). The mean fluorescence intensity of the stained cells (hereinafter referred to as MFI) was measured using flow cytometry FACScan (BD). The obtained value was defined as an expression level of MHC class I molecules. A test compound concentration necessary for suppressing 20% of the expression level of MHC class I molecules (EC20 value) was calculated using the following formula (1).
[formula] • Eexp: MFI of cultured cells containing test compound after being stained with antibody • Cexp: MFI of cultured cells containing no test compounds after being stained with antibody

| Compound | EC20 (concentration necessary for suppressing 20% of the expression level of MHC class I molecules) [nM] |
| --- | --- |
| COc1ccc(-c2ccnc3nc(NC(=O)NC(C)COCC4CCOCC4)nn23)cc1 (centres unmarked) [Example 325] | 70 |
| COc1ccc(-c2ccnc3nc(NC(=O)N[C@@H](C)C(=O)NC4CCCCC4)nn23)cc1 [Example 120] | 250 |
| COc1cccc([C@H](C)NC(=O)Nc2nc3nccc(-c4ccc(OCCC5OCCCO5)cc4)n3n2)c1 [Example 225] | 50 |
| COCCCC(C)NC(=O)Nc1nc2nccc(-c3ccc(OC)cc3)n2n1 (centres unmarked) [Example 314] | 80 |
| COc1ccc(-c2ccnc3nc(NC(=O)NC(C)c4cccc(OC(C)C)c4)nn23)cc1 (racemic) [Example 231] | 50 |
| O=C(Nc1nc2nccc(-c3cccc(Cl)c3)n2n1)NC1CCCCC1 [Example 016] | 730 |
| COc1cccc([C@H](C)NC(=O)Nc2nc3nccc(-c4cccc(OCCN5CCOCC5)c4)n3n2)c1.Cl [Example 204] | 70 |
| COc1cccc(-c2ccnc3nc(NC(=O)NC(C)C)nn23)c1 [Example 044] | 480 |
| COCC/C=C/[C@H](C)NC(=O)Nc1nc2nccc(-c3ccc(OC)cc3)n2n1 [Example 289] | 110 |
| COc1ccc(-c2ccnc3nc(NC(=O)N[C@H](C(=O)NC4CCN(Cc5ccccc5)CC4)C(C)C)nn23)cc1 [Example 074] | 550 |
| COc1cccc([C@H](C)NC(=O)Nc2nc3nccc(-c4cc(OC)c(OC)c(OC)c4)n3n2)c1 [Example 308] | 760 |
| CCCCNC(=O)Nc1nc2nccc(-c3ccc(OC)cc3)n2n1 [Example 032] | 250 |
| COc1ccc(-c2ccnc3nc(NC(=O)NC4CCCC(C(=O)N(C)C)C4)nn23)cc1 (centres unmarked) [Example 175] | 300 |
| COC(=O)[C@H](C)NC(=O)[C@@H](NC(=O)Nc1nc2nccc(-c3ccc(OC)cc3)n2n1)C(C)C [Example 098] | 140 |
| COc1cc(C(C)NC(=O)Nc2nc3nccc(-c4cccc(OCc5cccnc5)c4)n3n2)cc(OC)c1OC (centres unmarked) [Example 307] | 140 |
| COc1cccc([C@H](C)NC(=O)Nc2nc3nccc(-c4cccc(OCCCc5ccncc5)c4)n3n2)c1 [Example 211] | 60 |
| CC(C)COc1cccc(-c2ccnc3nc(NC(=O)NC(C)C)nn23)c1 [Example 172] | 240 |
| COc1cccc([C@H](C)NC(=O)Nc2nc3nccc(-c4ccc(OC(=O)N5CCC(N6CCCCC6)CC5)cc4)n3n2)c1 [Example 293] | 90 |
| COc1cccc(C(C)NC(=O)Nc2nc3nccc(-c4cccc(OCC5CCCO5)c4)n3n2)c1 (mixture of isomers) [Example 206] | 220 |
| COc1cccc([C@H](C)NC(=O)Nc2nc3nccc(-c4cccc(O)c4)n3n2)c1 [Example 200] | 70 |
| COc1ccc(-c2ccnc3nc(NC(=O)NCCC(=O)Nc4ccccc4)nn23)cc1 [Example 156] | 50 |
| CC(C)NC(=O)Nc1nc2nccc(-c3cccc(OCc4ccncc4)c3)n2n1 [Example 193] | 310 |
| COc1ccc(-c2ccnc3nc(NC(=O)N[C@@H](C)CCc4ccccc4)nn23)cc1 [Example 127] | 80 |
